In patent US4049795A, “Treatment of hemorrhagic shock” (priority 1974, dated 1977):

How the values were obtained:
Rabbit atrium = test: Isolated rabbit atrium; settings: rabbit atrium
Source text: The technique used for this study was the same as that described above for the ileum of the rabbit, but replacing the ileum with bled rabbit atrium. The preservation liquid used as LOCKE's liquid.

glucidic metabolism = test: Glucidic metabolism under intravenous perfusion in rabbits (lactacidemia, pyruvicemia, glycemia); type: in vivo, rabbit; settings: 30 and 60 minutes after perfusion
Protocol: These tests were carried out on rabbits weighing an average of 2.500 kg.
A trachetomy was carried out under local anaesthesia with procaine. […] A saphenous vein and the two femoral arteries were catheterized under local anaesthesia in order to register the blood pressure by a manometer and to take blood samples; a jugular vein was catheterized to the base of the skull to sample cerebral venous blood.
The results obtained were compared with those obtained following a perfusion carried out in the same way with sodium d,l-lactate at a dose of 40 mg/kg/min.
The glycemia was measured by the enzymatic method in the arterial and cerebral venus blood. The samples were taken before the perfusion, at the end of the perfusion, and at 30 minutes and 60 minutes after perfusion.

[1] = tested on: reticulo-endothelial system; test: Phagocytic activity of the reticulo-endothelial system, carbon clearance (HALPERN); type: in vivo, rabbit; settings: FIGS. 3 and 4
Source text: That technique is based on the study of the kinetics of the disappearance in the blood of particles of carbon injected into the vein. The kinetics of disappearance follow the equation [formula] in which formula C1 is the concentration of carbon in the blood at time T1 and C2 is the concentration of carbon in the blood at time T2, K being a constant. The constant K, called phagocytic index, represents the phagocytic activity of the cells of the reticule-endothelial system under the experimental conditions. For the tests, the technique and carbon suspension described by […]. Physiol. of Paris, Vol. 50, p. […] The study was done on rabbits of the same stock, male or female, or an average weight of about 2.5 kg, devided into four batches of four animals each. The first batch was used as controls and received, by slow intravenous injection, 10 ml of a 0.8% solution of sodium chloride ten minutes before the injection of 4 mg of carbon per 100 g of animal. […] In all the tests, a total volume of 10 ml was injected with a fairly closely related injection speed (less than five minutes).

Rabbit ileum = test: Isolated rabbit ileum, tonus; settings: without dihydroxyacetone
Protocol: Fragments of the ileum were suspended in a 75 ml isolated organ tank containing Tyrode's solution maintained at 37° C. by a thermostat and oxygenated by bubbling pure oxygen at a constant rate of flow. The movement of the organ were recorded by means of a lever on a cylinder rotating at a known constant speed.

[2] = tested on: free fatty acids in the plasma; test: Non-esterified fatty acids in the plasma (DOLE); type: in vivo, rabbit
Protocol: Doses of 1 and 2 mg of adrenalin were introduced subcutaneously into rabbits weighing 2.5 to 3.5 kg.
FIGS. 8, 9 and 10 show the variation in the percentage of non-esterified fatty acids in the plasma as a function of the time. […]

hemorrhagic shock = test: Irreversible hemorrhagic shock (WIGGERS) in dogs; settings: irreversible shock
Protocol: These experiments were carried out with dogs. […] Spontaneous reinjection, by progressive circulatory failure, of a quarter of the mass of blood effused during the second hemmorhage, was chosen as the irreversibility criterion. The following parameters were measured: pH, arterial and venous CO2 pressure (with a radiometertype apparatus), lactacidemia, pyruvicemia and glycemia (by the enzymatic method), and kalemia (with a flame photometer). Samples were taken from the dogs before irreversibility, immediately after, one hour 11/2 hours and 2R hours thereafter. The blood pressure was followed by femoral intubation and recorded with an apparatus providing mean arterial bloodpressure readings.

SMILES: CC(O)C(=O)O (racemic) [sodium lactate, sodium d,l-lactate, reference compound]
- action on rhythm of atrium (Rabbit atrium): accelerates the rhythm
- lactacidemia at 30 and 60 minutes after the end of perfusion (glucidic metabolism): tended to return to its initial values
- rate of phagocytosis [1]: increased

SMILES: [Cl-].[K+] [Potassium chloride, reference compound]
- tonus of the fiber, ordinary effect (Rabbit ileum): increases the tonus of the fiber in a stable manner

SMILES: CNCC(O)c1ccc(O)c(O)c1 (stereo not drawn) [adrenalin]
- proportion of non-esterified fatty acids one hour after injection ([2]; 1 mg of adrenalin, FIG. 9): fell below normal
- proportion of non-esterified fatty acids one hour after injection ([2]; 2 mg of adrenalin, FIG. 8): again increased
- average proportion of non-esterified fatty acids about 10 to 15 minutes after injection ([2]; 1 or 2 mg of adrenalin, fed rabbits): increased

SMILES: O=C[C@H](O)[C@@H](O)[C@H](O)[C@H](O)CO [hypertonic glucose, glucose, reference compound]
- effect on the blood pressure in hemorrhagic shock (hemorrhagic shock): no effect
- effect on the blood pressure in hemorrhagic shock (hemorrhagic shock; listed as 30% glucose): none
